Results: PubChem BioAssay (NCI)
“And” between values parts separate entries of the source, which are not always exact repeats. Equal values may be shown once.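 Protocol summary: plate cells (96-well), add compound at 5 concentrations, incubate 48 h, interpolate endpoints linearly. At the GI50, growth is halved. At the TGI there is no net growth.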

Assays:
Experiment in all cases: inhibition of tumour cell growth, NCI panel, 48 h
[1] = system: DU-145 prostate
[2] = system: RXF 393 renal
[3] = system: NCI-H460 lung
[4] = system: SNB-75 CNS
[5] = system: COLO 205 colon
[6] = system: OVCAR-8 ovarian
[7] = system: HCT-15 colon
[8] = system: MDA-MB-231 breast
[9] = system: MALME-3M melanoma
[10] = system: 786-0 renal
[11] = system: SF-295 CNS
[12] = system: HT29 colon
[13] = system: SW-620 colon
[14] = system: U251 CNS
[15] = system: ACHN renal
[16] = system: SK-MEL-28 melanoma
[17] = system: HL-60(TB) leukemia
[18] = system: RPMI-8226 leukemia
[19] = system: UO-31 renal
[20] = system: SF-539 CNS
[21] = system: NCI-H226 lung
[22] = system: UACC-257 melanoma
[23] = system: SK-MEL-2 melanoma
[24] = system: MCF7 breast
[25] = system: NCI-H23 lung
[26] = system: TK-10 renal
[27] = system: MOLT-4 leukemia
[28] = system: BT-549 breast
[29] = system: CCRF-CEM leukemia
[30] = system: HCC-2998 colon
[31] = system: HCT-116 colon
[32] = system: LOX IMVI melanoma
[33] = system: HOP-92 NSCLC
[34] = system: NCI-H522 lung
[35] = system: EKVX NSCLC
[36] = system: A498 renal
[37] = system: MDA-MB-435
[38] = system: T-47D breast
[39] = system: SN12C renal
[40] = system: OVCAR-3 ovarian
[41] = system: M14 melanoma
[42] = system: IGROV1 ovarian
[43] = system: NCI/ADR-RES ovarian
[44] = system: KM12 colon
[45] = system: HOP-62 NSCLC
[46] = system: HS 578T breast
[47] = system: OVCAR-4 ovarian
[48] = system: UACC-62 melanoma
[49] = system: SNB-19 CNS
[50] = system: PC-3 prostate
[51] = system: SK-OV-3 ovarian
[52] = system: OVCAR-5 ovarian
[53] = system: SR leukemia
[54] = system: SK-MEL-5 melanoma
[55] = system: SF-268 CNS
[56] = system: A549 NSCLC
[57] = system: CAKI-1 renal
[58] = system: K-562 leukemia

CC(=O)O[C@H]1C[C@H](O[C@H]2[C@@H](O)C[C@H](O[C@H]3[C@@H](O)C[C@H](O[C@H]4CC[C@@]5(C)C(CCC6C5C[C@@H](O)[C@]5(C)[C@@H](C7=CC(=O)OC7)CC[C@]65O)C4)O[C@@H]3C)O[C@@H]2C)O[C@H](C)[C@H]1O[C@@H]1O[C@H](CO)[C@@H](O)[C@H](O)[C@H]1O (stereo not given in full)
GI50 [1]: 13.8 nM and 110 nM | TGI [1]: 38.7 nM and 232 nM | GI50 [2]: 15.8 nM and 63.6 nM | TGI [2]: 63.6 nM and 385 nM | GI50 [3]: 16.5 nM and 34.5 nM | TGI [3]: 55.7 nM and 135 nM | GI50 [4]: 57.7 nM and 138 nM | TGI [4]: 147 nM and 304 nM | GI50 [5]: 284 nM | TGI [5]: 676 nM | GI50 [6]: 38.5 nM and 159 nM | TGI [6]: 104 nM and 385 nM | GI50 [7]: 58.7 nM and 200 nM | TGI [7]: 174 nM and 465 nM | GI50 [8]: 238 nM and 234 nM | TGI [8]: 1350 nM and 652 nM | GI50 [9]: 21.7 nM and 183 nM | TGI [9]: 130 nM and 469 nM | GI50 [10]: 25.1 nM and 105 nM | TGI [10]: 89.4 nM and 223 nM | GI50 [11]: 26.8 nM and 73.7 nM | TGI [11]: 286 nM and 581 nM | GI50 [12]: 24.6 nM and 120 nM | TGI [12]: 86.8 nM and 395 nM | GI50 [13]: 23.8 nM and 63.1 nM | TGI [13]: 86 nM and 302 nM | GI50 [14]: 29.8 nM and 113 nM | TGI [14]: 91 nM and 234 nM | GI50 [15]: 20.4 nM and 44 nM | TGI [15]: 69 nM and 179 nM | GI50 [16]: 115 nM and 215 nM | TGI [16]: 237 nM and 496 nM | GI50 [17]: 11.2 nM | TGI [17]: 28.3 nM | GI50 [18]: 68.2 nM and 200 nM | TGI [18]: 315 nM and 955 nM | GI50 [19]: 64.8 nM and 179 nM | TGI [19]: 237 nM and 343 nM | GI50 [20]: 21.7 nM and 105 nM | TGI [20]: 78.3 nM and 225 nM | GI50 [21]: 174 nM | TGI [21]: 314 nM | GI50 [22]: 85.2 nM and 347 nM | TGI [22]: 162 nM and 1180 nM | GI50 [23]: 315 nM | TGI [23]: 1000 nM | GI50 [24]: 24.8 nM and 57.5 nM | TGI [24]: 189 nM and 694 nM | GI50 [25]: 15.1 nM and 46.8 nM | TGI [25]: 58.6 nM and 206 nM | GI50 [26]: 14.6 nM and 145 nM | GI50 [27]: 11.7 nM and 25.7 nM | TGI [27]: 28.8 nM and 65.6 nM | GI50 [28]: 39.4 nM | TGI [28]: 129 nM | GI50 [29]: 17.3 nM and 33.3 nM | TGI [29]: 49.7 nM and 180 nM | GI50 [30]: 73 nM and 242 nM | TGI [30]: 210 nM and 678 nM | GI50 [31]: 18.2 nM and 39.4 nM | TGI [31]: 64 nM and 134 nM | GI50 [32]: 26.1 nM and 81.8 nM | TGI [32]: 93.7 nM and 238 nM | GI50 [33]: 78.1 nM and 158 nM | TGI [33]: 243 nM and 612 nM | GI50 [34]: 10.7 nM and 37.5 nM | TGI [34]: 37.6 nM and 126 nM | GI50 [35]: 22.4 nM and 56.6 nM | TGI [35]: 83.6 nM and 202 nM | GI50 [36]: 78 nM | TGI [36]: 412 nM | GI50 [37]: 110 nM and 275 nM | TGI [37]: 307 nM and 893 nM | GI50 [38]: 22.8 nM and 166 nM | TGI [38]: 167 nM and 576 nM | GI50 [39]: 20 nM and 47.1 nM | TGI [39]: 581 nM and 413 nM | GI50 [40]: 18.6 nM and 93.2 nM | TGI [40]: 65.6 nM and 218 nM | GI50 [41]: 103 nM and 212 nM | TGI [41]: 244 nM and 399 nM | GI50 [42]: 68.5 nM and 229 nM | TGI [42]: 1370 nM and 1310 nM | GI50 [43]: 23.3 nM and 76.4 nM | TGI [43]: 86.1 nM and 250 nM | GI50 [44]: 31.9 nM and 161 nM | TGI [44]: 140 nM and 382 nM | GI50 [45]: 19.6 nM and 65.1 nM | TGI [45]: 69.1 nM and 189 nM | TGI [46]: 1640 nM | GI50 [47]: 122 nM | TGI [47]: 442 nM | GI50 [48]: 93.8 nM and 173 nM | TGI [48]: 196 nM and 343 nM | GI50 [49]: 69.2 nM and 212 nM | TGI [49]: 256 nM and 557 nM | GI50 [50]: 28.7 nM and 103 nM | TGI [50]: 225 nM and 590 nM | GI50 [51]: 28.7 nM and 160 nM | TGI [51]: 99.6 nM and 314 nM | GI50 [52]: 65.8 nM and 175 nM | TGI [52]: 140 nM and 327 nM | GI50 [53]: 15.1 nM and 44 nM | TGI [53]: 97.7 nM and 281 nM | GI50 [54]: 18.7 nM and 109 nM | TGI [54]: 69.9 nM and 233 nM | GI50 [55]: 18.5 nM and 51.1 nM | TGI [55]: 73.7 nM and 165 nM | GI50 [56]: 9.03 nM and 31.9 nM | TGI [56]: 16.5 nM and 108 nM | GI50 [57]: 29.4 nM and 81.3 nM | TGI [57]: 183 nM and 345 nM | GI50 [58]: 27.2 nM | TGI [58]: 204 nM

Cc1cc(Cl)ccc1Nc1nc(C(F)(F)F)ccc1C(=O)N/N=C/c1cccc(O)c1
GI50 [1]: 3660 nM | TGI [1]: 15200 nM | GI50 [2]: 194 nM | TGI [2]: 11300 nM | GI50 [3]: 3570 nM | TGI [3]: 12800 nM | GI50 [4]: 2070 nM | TGI [4]: 13800 nM | GI50 [5]: 1170 nM | TGI [5]: 9550 nM | GI50 [6]: 1680 nM | TGI [6]: 15300 nM | GI50 [7]: 2510 nM | TGI [7]: 16000 nM | GI50 [8]: 4770 nM | TGI [8]: 35400 nM | GI50 [9]: 1750 nM | TGI [9]: 8800 nM | GI50 [10]: 4010 nM | TGI [10]: 13300 nM | GI50 [11]: 159 nM | TGI [11]: 1100 nM | GI50 [12]: 5030 nM | TGI [12]: 16900 nM | GI50 [13]: 3390 nM | TGI [13]: 14900 nM | GI50 [14]: 4510 nM | TGI [14]: 19800 nM | GI50 [15]: 4190 nM | TGI [15]: > 31800 nM | GI50 [16]: 3650 nM | TGI [16]: 16800 nM | GI50 [17]: 2110 nM | TGI [17]: 4970 nM | GI50 [18]: 2510 nM | TGI [18]: 9680 nM | GI50 [19]: 4980 nM | TGI [19]: 29000 nM | GI50 [20]: 4380 nM | TGI [20]: 15800 nM | GI50 [21]: 3740 nM | TGI [21]: 20100 nM | GI50 [22]: 11500 nM | TGI [22]: 38200 nM | GI50 [23]: 2090 nM | TGI [23]: 12700 nM | GI50 [24]: 2210 nM | TGI [24]: 12700 nM | GI50 [25]: 6660 nM | TGI [25]: 20100 nM | GI50 [26]: 2450 nM | TGI [26]: 12300 nM | GI50 [27]: 1010 nM | TGI [27]: 3270 nM | GI50 [28]: 861 nM | TGI [28]: 4240 nM | GI50 [29]: 449 nM | TGI [29]: 2410 nM | GI50 [30]: 3130 nM | TGI [30]: 13800 nM | GI50 [31]: 4420 nM | TGI [31]: 16500 nM | GI50 [32]: 3180 nM | TGI [32]: 13600 nM | GI50 [33]: 3360 nM | TGI [33]: 13900 nM | GI50 [34]: 8280 nM | TGI [34]: > 41000 nM | GI50 [35]: 814 nM | TGI [35]: 7190 nM | GI50 [36]: 4230 nM | TGI [36]: 18100 nM | GI50 [37]: 2170 nM | TGI [37]: 13700 nM | GI50 [38]: 112 nM | TGI [38]: 3130 nM | GI50 [39]: 6770 nM | TGI [39]: 23800 nM | GI50 [40]: 1480 nM | TGI [40]: 12700 nM | GI50 [41]: 4530 nM | TGI [41]: 17300 nM | GI50 [42]: 3850 nM | TGI [42]: 23400 nM | GI50 [43]: 4780 nM | TGI [43]: 17600 nM | GI50 [44]: 2560 nM | TGI [44]: 11900 nM | GI50 [45]: 7220 nM | TGI [45]: 20700 nM | GI50 [46]: 2110 nM | TGI [46]: 11500 nM | GI50 [47]: 1130 nM | TGI [47]: 14600 nM | GI50 [48]: 5880 nM | TGI [48]: 19500 nM | GI50 [49]: 2370 nM | TGI [49]: 11900 nM | GI50 [50]: 2960 nM | TGI [50]: 12900 nM | GI50 [51]: 1230 nM | TGI [51]: 10600 nM | GI50 [52]: 5960 nM | TGI [52]: 25000 nM | GI50 [53]: 836 nM | TGI [53]: 4490 nM | GI50 [54]: 3350 nM | TGI [54]: 12600 nM | GI50 [55]: 1600 nM | TGI [55]: 12200 nM | GI50 [56]: 8150 nM | TGI [56]: 25500 nM | GI50 [57]: 202 nM | TGI [57]: 5980 nM | GI50 [58]: 1990 nM | TGI [58]: 7100 nM
